The source of these data is patent publication EP4559908A1, “HETEROARYL DERIVATIVE COMPOUND AND USE THEREOF” (S2CBio Inc., priority 2022, dated 2024).

This assay deals with T1, human ANO6 (variant 5) (Homo sapiens, UniProt Q4KMQ2).
T1 construct: expressed in transfected cells; host or cells: Fischer rat thyroid (FRT) cells
T1 sequence (Q4KMQ2 1-931 isoform Q4KMQ2-2): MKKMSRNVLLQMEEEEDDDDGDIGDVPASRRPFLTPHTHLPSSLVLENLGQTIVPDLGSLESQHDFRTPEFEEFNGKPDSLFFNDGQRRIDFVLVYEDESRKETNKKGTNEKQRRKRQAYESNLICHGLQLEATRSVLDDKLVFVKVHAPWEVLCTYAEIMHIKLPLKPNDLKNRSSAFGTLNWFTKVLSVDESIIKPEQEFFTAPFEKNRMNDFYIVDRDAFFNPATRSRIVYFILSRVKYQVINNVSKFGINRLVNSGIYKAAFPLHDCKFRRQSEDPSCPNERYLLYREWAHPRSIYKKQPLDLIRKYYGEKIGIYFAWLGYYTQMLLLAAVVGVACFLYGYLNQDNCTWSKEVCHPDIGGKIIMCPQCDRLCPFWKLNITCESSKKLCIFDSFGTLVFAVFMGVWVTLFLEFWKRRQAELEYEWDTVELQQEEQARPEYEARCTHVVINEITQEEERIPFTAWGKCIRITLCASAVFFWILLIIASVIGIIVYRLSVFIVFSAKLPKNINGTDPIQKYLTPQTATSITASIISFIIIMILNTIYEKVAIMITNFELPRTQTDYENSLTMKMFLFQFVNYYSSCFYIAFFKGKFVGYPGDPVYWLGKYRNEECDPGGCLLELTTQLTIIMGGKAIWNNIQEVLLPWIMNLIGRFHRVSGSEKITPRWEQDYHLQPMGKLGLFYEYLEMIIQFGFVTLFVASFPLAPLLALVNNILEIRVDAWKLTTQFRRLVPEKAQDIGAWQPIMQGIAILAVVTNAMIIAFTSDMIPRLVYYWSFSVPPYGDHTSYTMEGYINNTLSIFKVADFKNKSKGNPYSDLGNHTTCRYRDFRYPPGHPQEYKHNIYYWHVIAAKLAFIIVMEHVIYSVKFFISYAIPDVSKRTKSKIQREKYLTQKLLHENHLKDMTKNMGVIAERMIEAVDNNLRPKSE
Nature of the assay: Lact C2 assay (measuring phosphatidylserine externalization scramblase function). Type of assay: cell-based. Particulars: FRT, FRT cells expressing human ANO6 (variant 5), ionomycin 10 µM, Lact-C2-GFP fluorescence, average of three tests; for inhibition at 0.05 µM: compound 50 nM, read-out: % Inhibition 50 nM; for inhibition at 1 µM: compound 1 µM, read-out: % Inhibition 1 µM. In a few lines: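 Cells were pretreated 10 min with compound (50 nM, 100 nM, 1 µM; 1% DMSO), then given 10 µM ionomycin for 10 min. Surface phosphatidylserine was stained with 500 nM Lact-C2-GFP (10 min, 37 °C), fixed and imaged. Inhibition was scaled between untreated (100%) and ionomycin-alone (0%) wells.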

Molecules are shown by their SMILES.

One may read the inhibition as the share of the control response that was lost under treatment. For the molecule `c1cc(Nc2ccc(-c3cscn3)cc2)cc(-c2nc3ccccc3[nH]2)c1` [Example 166, 3-(1H-benzo[d]imidazol-2-yl)-N-(4-thiazol-4-ylphenyl)aniline], the inhibition at 0.05 µM was above 60% and the inhibition at 1 µM was above 60%.

For `c1cc(Nc2ncc(-c3ncco3)cn2)cc(-c2nc3ccccc3[nH]2)c1` [Example 171, N-[3-(1H-benzo[d]imidazol-2-yl)phenyl]-5-oxazol-2-yl-pyrimidin-2-amine], the inhibition at 1 µM lay in the range of 30 to 60%. `CN(C)CCOc1ccc(-c2nc3ccc(C(F)(F)F)cc3[nH]2)cc1Nc1ccc(-c2cnccn2)cc1` [Example 174, 2-[2-(dimethylamino)ethoxy]-N-(4-pyrazin-2-ylphenyl)-5-[6-(trifluoromethyl)-1H-benzo[d]imidazol-2-yl]aniline]: the inhibition at 1 µM was in the range of 30 to 60%. As for `CN1CCN(CCOc2ccc(-c3nc4ccc(C(F)(F)F)cc4[nH]3)cc2Nc2ccc(-c3cnccn3)cc2)CC1` [Example 175, 2-[2-(4-methylpiperazin-1-yl)ethoxy]-N-(4-pyrazin-2-ylphenyl)-5-[6-(trifluoromethyl)-1H-benzo[d]imidazol-2-yl]aniline], the inhibition at 1 µM was above 60%. For `CN1CCN(c2ccc(-c3nc4ccc(C(F)(F)F)cc4[nH]3)cc2Nc2ncc(-c3cccnn3)cn2)CC1` [Example 176, N-(2-(4-methylpiperazin-1-yl)-5-(6-(trifluoromethyl)-lH-benzo[d]imidazol-2-yl)phenyl)-5-(pyridazin-3-yl)pyrimidin-2-amine], the inhibition at 1 µM lay within 30 to 60%. Consider `Cc1cc(-c2cccnn2)ccc1Nc1cccc(-c2nc3ccccc3[nH]2)c1` [Example 203, N-(3-(1H-benzo[d]imidazol-2-yl)phenyl)-2-methyl-4-(pyridazin-3-yl)aniline], for which the inhibition at 0.05 µM fell in the range of 30 to 60% and the inhibition at 1 µM is above 60%.

Regarding `Cc1cc(Nc2cccc(-c3nc4ccccc4[nH]3)c2)ccc1-c1cccnn1` [Example 204, N-(3-(1H-benzo[d]imidazol-2-yl)phenyl)-3-methyl-4-(pyridazin-3-yl)aniline], the inhibition at 1 µM was above 60%.

As to `Nc1cc(Nc2cccc(-c3nc4ccccc4[nH]3)c2)ccc1-c1cccnn1` [Example 207, N^1-(3-(1H-benzo[d]imidazol-2-yl)phenyl)-4-(pyridazin-3-yl)benzene-1,3-diamine], the inhibition at 1 µM is above 60%. Still for that read-out and setting: the result for `COc1cc(Nc2cccc(-c3nc4ccccc4[nH]3)c2)ccc1-c1cccnn1` [Example 208, N-(3-(1H-benzo[d]imidazol-2-yl)phenyl)-3-methoxy-4-(pyridazin-3-yl)aniline] reads above 60%. For the molecule `COc1cc(-c2cccnn2)ccc1Nc1cccc(-c2nc3ccccc3[nH]2)c1` [Example 210, N-(3-(1H-benzo[d]imidazol-2-yl)phenyl)-2-methoxy-4-(pyridazin-3-yl)aniline], the inhibition at 1 µM lay within 30 to 60%. `CN(C)c1ccc2nc(-c3cccc(Nc4ccc(-c5cccnn5)cc4)c3)[nH]c2c1` [Example 217, N,N-dimethyl-2-(3-((4-(pyridazin-3-yl)phenyl)amino)phenyl)-1H-benzo[d]imidazol-6-amine]: the inhibition at 0.05 µM was in the range of 30 to 60% and the inhibition at 1 µM was above 60%. As to `Brc1cc2[nH]c(-c3cccc(Nc4ccc(-c5cccnn5)cc4)c3)nc2cn1` [Example 218, 3-(6-bromo-1H-imidazo[4,5-c]pyridin-2-yl)-N-(4-(pyridazin-3-yl)phenyl)aniline], the inhibition at 0.05 µM was 30 to 60%. As to `c1cc(Nc2ccc(-c3cccnn3)cc2)cc(-c2nc3ncccc3[nH]2)c1` [Example 219, 3-(1H-imidazo[4,5-b]pyridin-2-yl)-N-(4-(pyridazin-3-yl)phenyl)aniline], the inhibition at 1 µM is above 60%. For the molecule `c1ccc(COc2ccc3nc(-c4cccc(Nc5ccc(-c6cccnn6)cc5)c4)[nH]c3c2)cc1` [Example 222, 3-(6-(benzyloxy)-1H-benzo[d]imidazol-2-yl)-N-(4-(pyridazin-3-yl)phenyl)aniline], the inhibition at 0.05 µM was above 60% and the inhibition at 1 µM was above 60%.

Regarding `COc1ccc2nc(-c3cccc(Nc4ccc(-c5cccnn5)cc4)c3)[nH]c2c1` [Example 223, 3-(6-methoxy-1H-benzo[d]imidazol-2-yl)-N-(4-(pyridazin-3-yl)phenyl)aniline], the inhibition at 0.05 µM was above 60% and the inhibition at 1 µM is above 60%. Take `Clc1cc2nc(-c3cccc(Nc4ccc(-c5cccnn5)cc4)c3)[nH]c2cc1Cl` [Example 225, 3-(5,6-dichloro-1H-benzo[d]imidazol-2-yl)-N-(4-(pyridazin-3-yl)phenyl)aniline]: the inhibition at 0.05 µM was above 60%. For `Clc1ccc2nc(-c3cccc(Nc4ccc(-c5cccnn5)cc4)c3)[nH]c2c1` [Example 226, 3-(6-chloro-1H-benzo[d]imidazol-2-yl)-N-(4-(pyridazin-3-yl)phenyl)aniline], the inhibition at 0.05 µM was above 60%. For the molecule `O=[N+]([O-])c1ccc2nc(-c3cccc(Nc4ccc(-c5cccnn5)cc4)c3)[nH]c2c1` [Example 227, 3-(6-nitro-1H-benzo[d]imidazol-2-yl)-N-(4-(pyridazin-3-yl)phenyl)aniline], the inhibition at 0.05 µM was above 60% and the inhibition at 1 µM is above 60%.

`c1ccc(CNc2ccc3nc(-c4cccc(Nc5ccc(-c6cccnn6)cc5)c4)[nH]c3c2)cc1` [Example 229, N-benzyl-2-(3-((4-(pyridazin-3-yl)phenyl)amino)phenyl)-1H-benzo[d]imidazol-6-amine]: the inhibition at 1 µM was above 60%. With `FC(F)(F)Oc1ccc2nc(-c3cccc(Nc4ccc(-c5cccnn5)cc4)c3)[nH]c2c1` [Example 230, N-(4-(pyridazin-3-yl)phenyl)-3-(6-(trifluoromethoxy)-1H-benzo[d]imidazol-2-yl)aniline], the inhibition at 0.05 µM was above 60% and the inhibition at 1 µM was above 60%. As for `N#Cc1ccc2nc(-c3cccc(Nc4ccc(-c5cccnn5)cc4)c3)[nH]c2c1` [Example 231, 2-(3-((4-(pyridazin-3-yl)phenyl)amino)phenyl)-1H-benzo[d]imidazole-6-carbonitrile], the inhibition at 1 µM was above 60%. `FC(F)(F)Oc1cc2[nH]c(-c3cccc(Nc4ccc(-c5cccnn5)cc4)c3)nc2cn1` [Example 232, N-(4-(pyridazin-3-yl)phenyl)-3-(6-(trifluoromethoxy)-1H-imidazo[4,5-c]pyridin-2-yl)aniline]: the inhibition at 0.05 µM is above 60% and the inhibition at 1 µM was above 60%.

For `FC(F)(F)c1cnc2nc(-c3cccc(Nc4ccc(-c5cccnn5)cc4)c3)[nH]c2c1` [Example 234, N-(4-(pyridazin-3-yl)phenyl)-3-(6-(trifluoromethyl)-1H-imidazo[4,5-b]pyridin-2-yl)aniline], the inhibition at 0.05 µM lay within 30 to 60% and the inhibition at 1 µM is above 60%. Consider `FC(F)(F)c1ccc2[nH]c(-c3cccc(Nc4ccc(-c5cccnn5)cc4)c3)nc2n1` [Example 235, N-(4-(pyridazin-3-yl)phenyl)-3-(5-(trifluoromethyl)-1H-imidazo[4,5-b]pyridin-2-yl)aniline], for which the inhibition at 0.05 µM was in the range of 30 to 60% and the inhibition at 1 µM is above 60%. Turning to `FC(F)(F)c1cc2[nH]c(-c3cccc(Nc4ccc(-c5ccccn5)cn4)c3)nc2cn1` [Example 238, N-(3-(6-(trifluoromethyl)-1H-imidazo [4,5-c]pyridin-2-yl)phenyl)-[2,3'-bipyridin]-6'-amine], the inhibition at 0.05 µM is above 60% and the inhibition at 1 µM was above 60%. As for `FC(F)(F)c1cc2[nH]c(-c3cccc(Nc4ncc(-c5ccccn5)cn4)c3)nc2cn1` [Example 242, 5-(pyridin-2-yl)-N-(3-(6-(trifluoromethyl)-1H-imidazo[4,5-c]pyridin-2-yl)phenyl)pyrimidin-2-amine], the inhibition at 0.05 µM is above 60% and the inhibition at 1 µM is above 60%. Take `FC(F)(F)c1cnc2nc(-c3cccc(Nc4ncc(-c5ccccn5)cn4)c3)[nH]c2c1` [Example 243, 5-(pyridin-2-yl)-N-(3-(6-(trifluoromethyl)-1H-imidazo[4,5-b]pyridin-2-yl)phenyl)pyrimidin-2-amine]: the inhibition at 0.05 µM fell in the range of 30 to 60% and the inhibition at 1 µM was above 60%. On to `FC(F)(F)c1ccc2[nH]c(-c3cccc(Nc4ncc(-c5ccccn5)cn4)c3)nc2n1` [Example 244, 5-(pyridin-2-yl)-N-(3-(5-(trifluoromethyl)-1H-imidazo[4,5-b]pyridin-2-yl)phenyl)pyrimidin-2-amine], for which the inhibition at 0.05 µM lay within 30 to 60% and the inhibition at 1 µM was above 60%.
